Laboratory results as given in patent US11419866B2, “Pharmaceutical composition for sustained release delivery of buprenorphine” (Foresee Pharmaceuticals Co., Ltd., priority 2018, dated 2022).
Marks after values point to notes of the source that are not given here.

Assays:
[1] = Color stabilization by antioxidant in buprenorphine formulation, visual inspection (Example 3); type: physicochemical; conditions: overtime under stress condition
[2] = Solubility of buprenorphine in BA/OA combination vehicles at room temperature

N[C@@H](CS)C(=O)O [Cys, cysteine]
capacity of color mitigation in buprenorphine formulation [1]: milder color stabilizing effect

N[C@@H](CCC(=O)N[C@@H](CS)C(=O)NCC(=O)O)C(=O)O [Glu, glutathione]
capacity of color mitigation in buprenorphine formulation [1]: milder color stabilizing effect

O=C(O)CCCCC1CCSS1 (stereo not shown) [LipA, lipoic acid]
capacity of color mitigation in buprenorphine formulation [1]: milder color stabilizing effect

OCC(O)CS (stereo not shown) [MTG, monothioglycerol]
capacity of color mitigation in buprenorphine formulation [1]: stronger capacity of color mitigation
benzyl aldehyde formation promoted by thiolated antioxidant (BA/OA solution): positive benzyl aldehyde formation
benzyl aldehyde formation with addition of VC (thiolated antioxidant containing BA/OA solution): inhibition effect of benzyl aldehyde

O=C([O-])CS.[Na+] [STG, sodium thioglycolate]
capacity of color mitigation in buprenorphine formulation [1]: stronger capacity of color mitigation

O=C(O)CS [TGA, thioglycolic acid]
capacity of color mitigation in buprenorphine formulation [1]: stronger capacity of color mitigation

CO[C@]12CC[C@@]3(C[C@@H]1[C@](C)(O)C(C)(C)C)[C@H]1Cc4ccc(O)c5c4[C@@]3(CCN1CC1CC1)[C@H]2O5 [buprenorphine, (25)-2-[(−)-(5R,6R,7R,14S)-9a-cyclo-propyl-methyl-4,5-epoxy-6,14-ethano-3-hydroxy-6-methoxymorphinan-7-yl]-3,3-di-methylbutan-2-ol]
Solubility of buprenorphine ([2]; BA/OA vehicle, OA wt % 0, room temperature): 21.2%
Solubility of buprenorphine ([2]; BA/OA vehicle, OA wt % 5, room temperature): 22.5%
Solubility of buprenorphine ([2]; BA/OA vehicle, OA wt % 10, room temperature): 25.4%
Solubility of buprenorphine ([2]; BA/OA vehicle, OA wt % 15, room temperature): 30.7%*
Solubility of buprenorphine ([2]; BA/OA vehicle, OA wt % 18, room temperature): 30.8%*
Solubility of buprenorphine ([2]; BA/OA vehicle, OA wt % 30, room temperature): 33.1%*
Solubility of buprenorphine ([2]; BA/OA vehicle, OA wt % 40, room temperature): 36.2%*
Solubility of buprenorphine ([2]; OA wt % 100, room temperature): 27.7%
